Assay results as given in US9944602B2, “Piperidinone herbicides” (E. I. DU PONT DE NEMOURS AND COMPANY, priority 2014, dated 2018).

Assays:
Assay type in all cases: in vivo
[1] = test system: barnyardgrass (Echinochloa crus-galli); assay: Test A preemergence barnyardgrass; settings: Echinochloa crus-galli, pre-emergence, 240 h, 0 to 100 scale, 0 no effect, 100 complete control, read-out: Barnyardgrass plant response rating; for pest or weed control at 125 g/ha: 125 g ai/ha; for pest or weed control at 500 g/ha: 500 g ai/ha
How it was run: (§1)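 Both application timings used the same loam-and-sand medium and the same solvent–surfactant formulation. Postemergence plants were 2–10 cm at the one- to two-leaf stage. After roughly 10 d of greenhouse growth, injury was judged visually against untreated plants, where 0 is no effect and 100 complete control.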

kochia (Kochia scoparia) [2] = assay: Test A preemergence kochia; settings: Bassia scoparia, pre-emergence, 240 h, 0 to 100 scale, 0 no effect, 100 complete control, read-out: Kochia plant response rating; for pest or weed control at 125 g/ha: 125 g ai/ha; for pest or weed control at 500 g/ha: 500 g ai/ha
How it was run: as §1

[3] = test system: ragweed (common ragweed, Ambrosia elatior); assay: Test A preemergence ragweed; settings: Ambrosia artemisiifolia, pre-emergence, 240 h, 0 to 100 scale, 0 no effect, 100 complete control, read-out: Ragweed plant response rating; for pest or weed control at 125 g/ha: 125 g ai/ha; for pest or weed control at 500 g/ha: 500 g ai/ha
How it was run: as §1

[4] = test system: ryegrass, Italian (Italian ryegrass, Lolium multiflorum); assay: Test A preemergence ryegrass, Italian; settings: Lolium multiflorum, pre-emergence, 240 h, 0 to 100 scale, 0 no effect, 100 complete control, read-out: Ryegrass, Italian plant response rating; for pest or weed control at 125 g/ha: 125 g ai/ha; for pest or weed control at 500 g/ha: 500 g ai/ha
How it was run: as §1

[5] = test system: foxtail, giant (giant foxtail, Setaria faberii); assay: Test A preemergence foxtail, giant; settings: Setaria faberi, pre-emergence, 240 h, 0 to 100 scale, 0 no effect, 100 complete control, read-out: Foxtail, Giant plant response rating; for pest or weed control at 125 g/ha: 125 g ai/ha; for pest or weed control at 500 g/ha: 500 g ai/ha
How it was run: as §1

[6] = test system: pigweed (Amaranthus retroflexus); assay: Test A preemergence pigweed; settings: Amaranthus retroflexus, pre-emergence, 240 h, 0 to 100 scale, 0 no effect, 100 complete control, read-out: Pigweed plant response rating; for pest or weed control at 125 g/ha: 125 g ai/ha; for pest or weed control at 500 g/ha: 500 g ai/ha
How it was run: as §1

[7] = test system: barnyardgrass (Echinochloa crus-galli); assay: Test A postemergence barnyardgrass; settings: Echinochloa crus-galli, post-emergence, 240 h, 0 to 100 scale, 0 is no effect, 100 is complete control, read-out: Plant response rating, Barnyardgrass; for pest or weed control at 125 g/ha: 125 g ai/ha; for pest or weed control at 500 g/ha: 500 g ai/ha
How it was run: as §1

kochia (Kochia scoparia) [8] = assay: Test A postemergence kochia; settings: Bassia scoparia, post-emergence, 240 h, 0 to 100 scale, 0 is no effect, 100 is complete control, read-out: Plant response rating, Kochia; for pest or weed control at 125 g/ha: 125 g ai/ha; for pest or weed control at 500 g/ha: 500 g ai/ha
How it was run: as §1

[9] = test system: ragweed (common ragweed, Ambrosia elatior); assay: Test A postemergence ragweed; settings: Ambrosia artemisiifolia, post-emergence, 240 h, 0 to 100 scale, 0 is no effect, 100 is complete control, read-out: Plant response rating, Ragweed; for pest or weed control at 125 g/ha: 125 g ai/ha; for pest or weed control at 500 g/ha: 500 g ai/ha
How it was run: as §1

[10] = test system: ryegrass, Italian (Italian ryegrass, Lolium multiflorum); assay: Test A postemergence ryegrass, Italian; settings: Lolium multiflorum, post-emergence, 240 h, 0 to 100 scale, 0 is no effect, 100 is complete control, read-out: Plant response rating, Ryegrass, Italian; for pest or weed control at 125 g/ha: 125 g ai/ha; for pest or weed control at 500 g/ha: 500 g ai/ha
How it was run: as §1

[11] = test system: foxtail, giant (giant foxtail, Setaria faberii); assay: Test A postemergence foxtail, giant; settings: Setaria faberi, post-emergence, 240 h, 0 to 100 scale, 0 is no effect, 100 is complete control, read-out: Plant response rating, Foxtail, Giant; for pest or weed control at 125 g/ha: 125 g ai/ha; for pest or weed control at 500 g/ha: 500 g ai/ha
How it was run: as §1

[12] = test system: pigweed (Amaranthus retroflexus); assay: Test A postemergence pigweed; settings: Amaranthus retroflexus, post-emergence, 240 h, 0 to 100 scale, 0 is no effect, 100 is complete control, read-out: Plant response rating, Pigweed; for pest or weed control at 125 g/ha: 125 g ai/ha; for pest or weed control at 500 g/ha: 500 g ai/ha
How it was run: as §1

[13] = test system: wheat (Triticum aestivum); assay: Test A postemergence wheat; settings: Triticum aestivum, post-emergence, 240 h, 0 to 100 scale, 0 is no effect, 100 is complete control, read-out: Plant response rating, Wheat; for plant injury at 125 g/ha: 125 g ai/ha; for plant injury at 500 g/ha: 500 g ai/ha
How it was run: as §1

corn (Zea mays) = assay: Test A postemergence corn; settings: Zea mays, post-emergence, 240 h, 0 to 100 scale, 0 is no effect, 100 is complete control; for Corn plant response rating (crop injury, 0 = no effect, 100 = complete kill) at 125 g/ha: 125 g ai/ha; for Corn plant response rating (crop injury, 0 = no effect, 100 = complete kill) at 500 g/ha: 500 g ai/ha
How it was run: as §1

[14] = test system: blackgrass (Alopecurus myosuroides); assay: Test A postemergence blackgrass; settings: Alopecurus myosuroides, post-emergence, 240 h, 0 to 100 scale, 0 is no effect, 100 is complete control, read-out: Plant response rating, Blackgrass; for pest or weed control at 125 g/ha: 125 g ai/ha; for pest or weed control at 500 g/ha: 500 g ai/ha
How it was run: as §1

[15] = test system: galium (catchweed bedstraw, Galium aparine); assay: Test A postemergence galium; settings: Galium, post-emergence, 240 h, 0 to 100 scale, 0 is no effect, 100 is complete control, read-out: Plant response rating, Galium; for pest or weed control at 125 g/ha: 125 g ai/ha; for pest or weed control at 500 g/ha: 500 g ai/ha
How it was run: as §1

rice (Oryza sativa) = assay: Test B flooded paddy test rice; settings: Oryza sativa, Table B, Flood, 250 g ai/ha, scale 0 to 100, read-out: Plant response rating
How it was run: (§2)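 2-leaf plants; flood 3 cm over soil; cpd into paddy water; water depth kept; greenhouse 13–15 d; visual rating vs controls.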

[16] = test system: sedge, umbrella (small-flower umbrella sedge, Cyperus difformis); assay: Test B flooded paddy test sedge, umbrella; settings: Cyperus difformis, Table B, Flood, 250 g ai/ha, scale 0 to 100, read-out: Plant response rating
How it was run: as §2

[17] = test system: ducksalad (Heteranthera limosa); assay: Test B flooded paddy test ducksalad; settings: Heteranthera limosa, Table B, Flood, 250 g ai/ha, scale 0 to 100, read-out: Plant response rating
How it was run: as §2

[18] = test system: barnyardgrass (Echinochloa crus-galli); assay: Test B flooded paddy test barnyardgrass; settings: Echinochloa crus-galli, Table B, Flood, 250 g ai/ha, scale 0 to 100, read-out: Plant response rating
How it was run: as §2

## O=C1NCC[C@H](c2cccc(Cl)c2)[C@H]1C(=O)Nc1cccc(F)c1F [Compound 42, (3R,4S)-4-(3-chlorophenyl)-N-(2,3-difluorophenyl)-2-oxo-3-piperidinecarboxamide]
[1]
  pest or weed control at 125 g/ha: 90%
  pest or weed control at 500 g/ha: 90%
Kochia (Kochia scoparia) [2]
  pest or weed control at 125 g/ha: 0%
  pest or weed control at 500 g/ha: 0%
[3]
  pest or weed control at 125 g/ha: 0%
  pest or weed control at 500 g/ha: 0%
[4]
  pest or weed control at 125 g/ha: 40%
  pest or weed control at 500 g/ha: 60%
[5]
  pest or weed control at 125 g/ha: 90%
  pest or weed control at 500 g/ha: 90%
[6]
  pest or weed control at 125 g/ha: 0%
  pest or weed control at 500 g/ha: 10%
[7]
  pest or weed control at 125 g/ha: 80%
  pest or weed control at 500 g/ha: 90%
Kochia (Kochia scoparia) [8]
  pest or weed control at 125 g/ha: 0%
  pest or weed control at 500 g/ha: 30%
[9]
  pest or weed control at 125 g/ha: 0%
  pest or weed control at 500 g/ha: 0%
[10]
  pest or weed control at 125 g/ha: 40%
  pest or weed control at 500 g/ha: 50%
[11]
  pest or weed control at 125 g/ha: 90%
  pest or weed control at 500 g/ha: 90%
[12]
  pest or weed control at 125 g/ha: 0%
  pest or weed control at 500 g/ha: 0%
[13]
  plant injury at 125 g/ha: 0%
  plant injury at 500 g/ha: 60%
Corn (Zea mays)
  Corn plant response rating (crop injury, 0 = no effect, 100 = complete kill) at 125 g/ha: 10%
  Corn plant response rating (crop injury, 0 = no effect, 100 = complete kill) at 500 g/ha: 60%
[14]
  pest or weed control at 125 g/ha: 40%
  pest or weed control at 500 g/ha: 70%
[15]
  pest or weed control at 125 g/ha: 0%
  pest or weed control at 500 g/ha: 10%
Rice (Oryza sativa)
  plant injury at 250 g/ha: 0%
[16]
  pest or weed control at 250 g/ha: 0%
[17]
  pest or weed control at 250 g/ha: 95%
[18]
  pest or weed control at 250 g/ha: 75%

## O=C1NCC[C@H](c2cccc(C(F)(F)F)c2)[C@H]1C(=O)Nc1cccc(F)c1F [Compound 21, (3R,4S)—N-(2,3-difluorophenyl)-2-oxo-4-[3-(trifluoromethyl)phenyl]-3-piperidinecarboxamide]
[1]
  pest or weed control at 125 g/ha: 90%
  pest or weed control at 500 g/ha: 90%
Kochia (Kochia scoparia) [2]
  pest or weed control at 125 g/ha: 0%
  pest or weed control at 500 g/ha: 0%
[3]
  pest or weed control at 125 g/ha: 0%
  pest or weed control at 500 g/ha: 0%
[4]
  pest or weed control at 125 g/ha: 0%
  pest or weed control at 500 g/ha: 60%
[5]
  pest or weed control at 125 g/ha: 90%
  pest or weed control at 500 g/ha: 90%
[6]
  pest or weed control at 125 g/ha: 0%
  pest or weed control at 500 g/ha: 0%
[7]
  pest or weed control at 125 g/ha: 90%
  pest or weed control at 500 g/ha: 90%
Kochia (Kochia scoparia) [8]
  pest or weed control at 125 g/ha: 0%
  pest or weed control at 500 g/ha: 0%
[9]
  pest or weed control at 125 g/ha: 0%
  pest or weed control at 500 g/ha: 0%
[10]
  pest or weed control at 125 g/ha: 30%
  pest or weed control at 500 g/ha: 40%
[11]
  pest or weed control at 125 g/ha: 80%
  pest or weed control at 500 g/ha: 80%
[12]
  pest or weed control at 125 g/ha: 0%
  pest or weed control at 500 g/ha: 20%
[13]
  plant injury at 125 g/ha: 0%
  plant injury at 500 g/ha: 60%
Corn (Zea mays)
  Corn plant response rating (crop injury, 0 = no effect, 100 = complete kill) at 125 g/ha: 50%
  Corn plant response rating (crop injury, 0 = no effect, 100 = complete kill) at 500 g/ha: 80%
[14]
  pest or weed control at 125 g/ha: 60%
  pest or weed control at 500 g/ha: 80%
[15]
  pest or weed control at 125 g/ha: 0%
  pest or weed control at 500 g/ha: 20%
Rice (Oryza sativa)
  plant injury at 250 g/ha: 10%
[16]
  pest or weed control at 250 g/ha: 0%
[17]
  pest or weed control at 250 g/ha: 100%
[18]
  pest or weed control at 250 g/ha: 75%
